Data on two compounds can be found in patent publication US9096593B2, “Compounds and methods for kinase modulation, and indications therefor” (Plexxikon Inc., priority 2009, dated 2015).

The structures appear in SMILES notation. Like-named read-outs stand apart in the source and are kept apart here. Where only a bound is given, the exact number is not on record here.

Data set [1] in a line: Turbidity assay of relative solubility in aqueous buffers. It is filed as physicochemical. Particulars: for turbidity threshold (L, M, H) 1.4: pH 1.4 as headed (method: SGF pH 1.5); for turbidity threshold (L, M, H) 4.5: pH 4.5 (SIF); for turbidity threshold (L, M, H) 6.8: pH 6.8 (SIF); for turbidity threshold (L, M, H) 7.4: pH 7.4 (HEPES). As to the method: As an indication of relative solubility, the turbidity of compounds in aqueous solutions is assessed. To assess possible compound properties in different physiological compartments, such as stomach, intestine, and blood, a series of aqueous buffers with varying pH is used. Thus each compound is diluted into four different physiologically relevant buffers and solution turbidity is measured by spectrophotometry.
Compounds are dissolved at a concentration of 25 mM in dimethyl sulfoxide, then serially diluted 1:1 into a 96 well plate, diluting 10 times in pure dimethyl sulfoxide, with the final well of each row a dimethyl sulfoxide blank. In an assay plate, 99 μL of appropriate buffer is added to each well, and 1 μL of each sample dilution is added to the buffer, achieving a range of final total concentrations in aqueous solutions having different pH. The buffers used are Simulated Gastric Fluid (SGF-pH 1.5) 0.5M NaCl, pH 1.5; Simulated Intestinal fluid (SIF-pH 4.5 and pH 6.8) 0.05M NaH2PO4, pH 4.5 and 6.8; and Hepes Buffer (HEPES-pH 7.4) 10 mM HEPES, 150 mM NaCl, pH 7.4. Control compounds pyrene, estriol and propranolol HCl are also assessed. Plates are spun and then mixed for 1 minute, and the absorbance is read using a Tecan Safire II to read wavelengths in the visible range (490, 535, and 650 nm) at four locations per well, reflecting the degree of turbidity present. The average optical density for each wavelength in each well is graphed vs. compound concentration, and the concentration at which the curve crosses a threshold O.D. of 0.01 for each wavelength is reported as the endpoint turbidity assay result. The average of the three wavelengths is used to compare turbidity of compounds. Compounds are considered to have low solubility if the threshold concentration is <31.3 μM, moderate solubility if the threshold concentration is 31.3 μM to 250 μM, and high solubility if the threshold concentration is >250 μM.

Another data set addresses CYP1A2 (Homo sapiens (Human), UniProt P05177). Kind of data set: CYP enzyme inhibition, fluorescent substrate. To be noted: human, 15 min. How it is done:
(§1) CYP (Cytochrome P450) enzymes are the major drug metabolizing enzymes present in the liver. The inhibition of CYP enzyme activity (IC50) for each of CYP1A2, CYP2C19, CYP2C9, CYP2D6, CYP3A4(BFC) and CYP3A4(BQ) is determined for compounds, where inhibition of metabolism of a known substrate leads to a decrease in the fluorescence of the metabolized product. The fluorescence of the product is monitored as a function of compound concentration.
(§2) Compounds are dissolved in DMSO to a concentration of 100 mM. These are diluted 1 μL into 82 μL of acetonitrile. An 11 μL aliquot of this solution is then added to 204 μL of cofactor mix (1.3% NADPH Regeneration system Solution A, 1.04% NADPH Regeneration system Solution B from BD Biosciences, 5% acetonitrile and 0.05% DMSO). These are then serially diluted 1:1 (160 μL to 160 μL co-factor mix) for a total of 10 points. A 10 μL aliquot of this final mixture is dispensed into 384 well assay plates and incubated for 10 minutes at 37° C. Enzyme and substrate mix (10 μL; […] CYP1A2/5 μM CEC; 1.0 μmol CYP2C9/75 μM MFC; […] CYP2C19/25 μM CEC; 1.5 μmol CYP2D6/1.5 μM AMMC; 1.0 μmol CYP3A4/50 μM BFC; or 1.0 μmol CYP3A4/40 μM BQ) is added to these assay plates. Assay plates are incubated at 37° C. (CYP1A2-15 min; CYP2C9-45 min; CYP2C19, 2D6 and 3A4-30 min) and read in a Tecan Safire 2 plate reader (CYP1A2, 2C19 and 3A4 409 ex/460 em; CYP2C9 and 2D6409 ex/530 em). The signal versus compound concentration is used to determine the IC50. The enzymes and substrates for this assay are obtained from BD Biosciences.

Another data set addresses CYP2C9 (Homo sapiens (Human), UniProt P11712). Kind of data set: CYP enzyme inhibition, fluorescent substrate. As to the method:
as §1, §2

The next data set deals with CYP3A4(BFC) (Homo sapiens (Human), UniProt P08684). Kind of data set: CYP enzyme inhibition, fluorescent substrate. How it is done:
as §1, §2

The target in the next data set is CYP2D6 (Homo sapiens (Human), UniProt P10635). Put plainly: CYP enzyme inhibition, fluorescent substrate. Particulars: read-out: Cyp IC50 (μM) 2D6. How it is done: as §1, §2
Another data set addresses CYP3A4(BQ) (Homo sapiens (Human), UniProt P08684). Put plainly: CYP enzyme inhibition, fluorescent substrate. To be noted: read-out: Cyp IC50 (μM) 3A4(BQ); BQ substrate. How it is done:
as §1, §2

In a further data set the target is CYP2C19 (Homo sapiens (Human), UniProt P33261). Put plainly: CYP enzyme inhibition, fluorescent substrate. As to the method: as §1, §2
The target in a further data set is c-Kit kinase (Homo sapiens (Human), UniProt P10721). Kind of data set: c-Kit kinase biochemical activity assay (AlphaScreen, biotin-(E4Y)10 phosphorylation). How it is done:
In one assay the biochemical activity IC50 values are determined with respect to inhibition of c-Kit kinase activity, where inhibition of phosphorylation of a peptide substrate is measured as a function of compound concentration. Compounds to be tested are dissolved in DMSO to a concentration of 20 mM. These are diluted 30 μL into 120 μL of DMSO (4 mM) and 1 μL is added to an assay plate. These are then serially diluted […] (50 μL to 100 μL DMSO) for a total of 8 points. Plates are prepared such that each kinase reaction is 20 μL in 1× kinase buffer (25 mM HEPES, pH 7.5, 2 mM MgCl2, 2 mM MnCl2, 0.01% Tween-20, 1 mM DTT, 0.01% BSA), 5% DMSO and 100 μM ATP. Substrate is 30 nM biotin-(E4Y)10 (Millipore). C-kit kinase (obtained from Millipore (#14-559) or is prepared as described in U.S. Patent Application Publication Number 2009/0076046, the disclosure of which is hereby incorporated by reference as it relates to this assay) is at 0.75 ng per sample. After incubation of the kinase reaction for 1 hour at room temperature, 5 μL of donor beads (Streptavidin coated beads (Perkin Elmer Life Science) final concentration 10 μg/mL) in stop buffer (25 mM Hepes pH 7.5, 100 mM EDTA, 0.01% BSA) is added, the sample is mixed and incubated for 20 minutes at room temperature before adding 5 μL of acceptor beads (PY20 coated beads (Perkin Elmer Life Science) final concentration 10 μg/mL) in stop buffer. The samples are incubated for 60 minutes at room temperature and the signal per well is read on Envision reader. […] The signal vs. compound concentration is used to determine the IC50.
A general note: Bead proximity is the source of the signal in Alpha formats.

The next data set addresses Fms kinase (Homo sapiens (Human), UniProt P07333). Put plainly: Fms kinase biochemical activity assay (AlphaScreen, biotin-(E4Y)10 phosphorylation). As to the method:
In one assay the biochemical activity IC50 values are determined with respect to inhibition of Fms kinase activity, where inhibition of phosphorylation of a peptide substrate is measured as a function of compound concentration. Compounds to be tested, dissolved in DMSO (1 μL), are added to a white 384-well plate (Costar #3705). Working stocks of Fms kinase (Invitrogen #PV3249), biotin-(E4Y)10 substrate (Upstate Biotech, Cat#12-440), and ATP (Sigma, Cat#A-3377) are prepared in 25 mM Hepes pH 7.5, 0.5 mM MgCl2, 2 mM MnCl2, 2 mM DTT, 0.01% BSA, and 0.01% Tween-20. All components are added to the 384-well plate for a final concentration of 1 ng/well Fms, 30 nM biotin-(E4Y)10 (Upstate Biotechnology) and 100 μM ATP in a volume of 20 μL. Each sample is at 5% DMSO. The plate is then incubated for 20 minutes at 30° C. Just before use, working stocks of donor and acceptor beads from the AlphaScreen PY20 Detection Kit (PerkinElmer, Cat#676601M) are prepared in 25 mM Hepes pH 7.5, pH 7.4, 100 mM EDTA, 0.01% BSA. To stop the reaction, the plate is uncovered in the dark and 5 μL of Donor Beads solution (Streptavidin beads) is added to each well. The plate is incubated at room temperature for 20 minutes. Five microliters of Acceptor Beads solution (PY20 coated beads) are then added to each well. The final concentration of each bead is 10 μg/mL. The plates are incubated at room temperature for 60 minutes. Fluorescence signal is recorded on the Envision reader. […] The signal vs. compound concentration is used to determine the IC50.

Sequence of CYP1A2 (P05177 whole entry): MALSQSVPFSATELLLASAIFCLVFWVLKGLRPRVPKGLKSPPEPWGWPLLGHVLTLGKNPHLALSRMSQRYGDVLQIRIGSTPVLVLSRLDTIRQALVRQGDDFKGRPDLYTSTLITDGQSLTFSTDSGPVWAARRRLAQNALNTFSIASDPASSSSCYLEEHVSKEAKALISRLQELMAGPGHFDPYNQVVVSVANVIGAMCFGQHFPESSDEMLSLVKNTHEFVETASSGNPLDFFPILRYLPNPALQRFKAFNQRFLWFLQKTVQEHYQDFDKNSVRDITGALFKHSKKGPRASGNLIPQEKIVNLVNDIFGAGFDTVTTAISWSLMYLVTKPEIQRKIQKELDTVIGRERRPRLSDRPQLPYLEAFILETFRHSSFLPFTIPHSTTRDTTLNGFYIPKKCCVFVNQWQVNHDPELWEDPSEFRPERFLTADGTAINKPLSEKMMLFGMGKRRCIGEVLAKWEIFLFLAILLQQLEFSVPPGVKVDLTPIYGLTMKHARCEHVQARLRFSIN
Sequence of Fms kinase (P07333 20-972): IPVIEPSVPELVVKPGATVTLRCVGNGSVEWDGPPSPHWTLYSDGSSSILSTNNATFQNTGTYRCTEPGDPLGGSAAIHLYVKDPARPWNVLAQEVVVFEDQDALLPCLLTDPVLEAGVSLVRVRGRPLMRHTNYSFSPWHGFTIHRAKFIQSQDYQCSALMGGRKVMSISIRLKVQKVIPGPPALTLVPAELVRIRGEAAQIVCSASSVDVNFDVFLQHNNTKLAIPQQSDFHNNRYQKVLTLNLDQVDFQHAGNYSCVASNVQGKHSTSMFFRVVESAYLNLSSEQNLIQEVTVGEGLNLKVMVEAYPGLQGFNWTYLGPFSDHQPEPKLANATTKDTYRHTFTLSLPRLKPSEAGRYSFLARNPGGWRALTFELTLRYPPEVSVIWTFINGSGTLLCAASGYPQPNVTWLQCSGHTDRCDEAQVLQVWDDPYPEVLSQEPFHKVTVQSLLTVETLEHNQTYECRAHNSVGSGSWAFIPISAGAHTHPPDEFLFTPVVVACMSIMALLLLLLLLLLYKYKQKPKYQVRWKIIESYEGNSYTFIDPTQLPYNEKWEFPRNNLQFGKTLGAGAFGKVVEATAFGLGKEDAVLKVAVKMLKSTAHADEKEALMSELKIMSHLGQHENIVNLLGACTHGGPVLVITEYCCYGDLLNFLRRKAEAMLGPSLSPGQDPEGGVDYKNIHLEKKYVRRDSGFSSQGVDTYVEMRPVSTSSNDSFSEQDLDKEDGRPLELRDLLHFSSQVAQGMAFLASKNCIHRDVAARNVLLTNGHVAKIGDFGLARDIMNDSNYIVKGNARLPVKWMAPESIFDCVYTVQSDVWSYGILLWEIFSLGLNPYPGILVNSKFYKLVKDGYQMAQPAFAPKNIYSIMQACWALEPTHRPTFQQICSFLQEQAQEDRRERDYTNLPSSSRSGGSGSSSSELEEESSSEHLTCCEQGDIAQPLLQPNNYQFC
Sequence of CYP2C9 (P11712 whole entry): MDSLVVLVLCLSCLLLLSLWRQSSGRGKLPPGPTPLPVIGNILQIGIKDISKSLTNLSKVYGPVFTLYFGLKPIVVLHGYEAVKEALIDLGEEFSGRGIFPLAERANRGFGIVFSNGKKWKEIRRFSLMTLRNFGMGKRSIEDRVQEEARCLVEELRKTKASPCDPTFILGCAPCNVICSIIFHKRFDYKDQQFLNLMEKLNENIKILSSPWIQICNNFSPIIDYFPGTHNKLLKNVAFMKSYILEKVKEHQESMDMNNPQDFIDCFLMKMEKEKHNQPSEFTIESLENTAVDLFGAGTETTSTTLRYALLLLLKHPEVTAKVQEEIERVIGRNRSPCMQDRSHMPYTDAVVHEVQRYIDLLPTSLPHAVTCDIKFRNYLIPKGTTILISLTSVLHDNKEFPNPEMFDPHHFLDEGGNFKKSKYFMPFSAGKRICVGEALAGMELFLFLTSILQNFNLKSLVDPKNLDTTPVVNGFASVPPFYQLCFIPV
Sequence of CYP2C19 (P33261 whole entry): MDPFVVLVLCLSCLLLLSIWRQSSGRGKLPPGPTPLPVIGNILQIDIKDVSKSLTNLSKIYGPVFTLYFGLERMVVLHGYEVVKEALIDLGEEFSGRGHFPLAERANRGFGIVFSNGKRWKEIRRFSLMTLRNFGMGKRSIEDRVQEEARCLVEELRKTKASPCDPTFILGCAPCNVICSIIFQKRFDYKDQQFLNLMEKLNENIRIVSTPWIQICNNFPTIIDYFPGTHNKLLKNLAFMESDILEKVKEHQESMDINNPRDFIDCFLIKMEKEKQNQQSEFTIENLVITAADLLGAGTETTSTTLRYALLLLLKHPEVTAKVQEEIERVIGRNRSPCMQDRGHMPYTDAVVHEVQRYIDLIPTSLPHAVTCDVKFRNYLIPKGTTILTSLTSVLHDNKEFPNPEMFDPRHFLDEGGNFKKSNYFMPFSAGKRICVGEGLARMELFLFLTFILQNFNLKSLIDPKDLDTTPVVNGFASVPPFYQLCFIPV
Sequence of CYP3A4(BQ) (P08684 whole entry): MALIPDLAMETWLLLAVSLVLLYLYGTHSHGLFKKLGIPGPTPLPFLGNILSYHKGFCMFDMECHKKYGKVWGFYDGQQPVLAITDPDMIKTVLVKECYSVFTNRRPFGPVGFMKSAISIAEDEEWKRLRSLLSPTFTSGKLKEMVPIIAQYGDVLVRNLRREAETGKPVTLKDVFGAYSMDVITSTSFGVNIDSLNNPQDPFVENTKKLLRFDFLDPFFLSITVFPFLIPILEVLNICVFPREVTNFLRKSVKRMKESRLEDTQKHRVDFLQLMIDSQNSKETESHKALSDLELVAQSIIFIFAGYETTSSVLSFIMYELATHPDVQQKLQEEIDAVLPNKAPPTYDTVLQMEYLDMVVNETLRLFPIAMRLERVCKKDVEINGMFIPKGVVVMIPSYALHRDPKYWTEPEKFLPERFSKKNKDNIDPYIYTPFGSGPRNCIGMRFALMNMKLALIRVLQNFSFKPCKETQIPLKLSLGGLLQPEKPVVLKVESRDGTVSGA
Sequence of CYP3A4(BFC) (P08684 whole entry): as above
Sequence of CYP2D6 (P10635 whole entry): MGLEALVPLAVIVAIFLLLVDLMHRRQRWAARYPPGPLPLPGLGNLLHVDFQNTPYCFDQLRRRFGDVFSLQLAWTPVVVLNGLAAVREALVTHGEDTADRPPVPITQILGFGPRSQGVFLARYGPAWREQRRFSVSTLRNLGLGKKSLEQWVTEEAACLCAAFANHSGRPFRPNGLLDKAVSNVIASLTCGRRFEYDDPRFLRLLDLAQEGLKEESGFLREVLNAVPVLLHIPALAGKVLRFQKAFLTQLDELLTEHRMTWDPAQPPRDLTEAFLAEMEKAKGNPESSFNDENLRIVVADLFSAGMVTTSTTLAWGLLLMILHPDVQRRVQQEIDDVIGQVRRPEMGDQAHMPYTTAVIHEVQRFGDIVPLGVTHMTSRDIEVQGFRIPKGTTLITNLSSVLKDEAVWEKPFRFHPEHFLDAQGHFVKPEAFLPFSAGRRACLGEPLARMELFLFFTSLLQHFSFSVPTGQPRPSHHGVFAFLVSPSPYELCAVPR
Sequence of c-Kit kinase (P10721 26-976): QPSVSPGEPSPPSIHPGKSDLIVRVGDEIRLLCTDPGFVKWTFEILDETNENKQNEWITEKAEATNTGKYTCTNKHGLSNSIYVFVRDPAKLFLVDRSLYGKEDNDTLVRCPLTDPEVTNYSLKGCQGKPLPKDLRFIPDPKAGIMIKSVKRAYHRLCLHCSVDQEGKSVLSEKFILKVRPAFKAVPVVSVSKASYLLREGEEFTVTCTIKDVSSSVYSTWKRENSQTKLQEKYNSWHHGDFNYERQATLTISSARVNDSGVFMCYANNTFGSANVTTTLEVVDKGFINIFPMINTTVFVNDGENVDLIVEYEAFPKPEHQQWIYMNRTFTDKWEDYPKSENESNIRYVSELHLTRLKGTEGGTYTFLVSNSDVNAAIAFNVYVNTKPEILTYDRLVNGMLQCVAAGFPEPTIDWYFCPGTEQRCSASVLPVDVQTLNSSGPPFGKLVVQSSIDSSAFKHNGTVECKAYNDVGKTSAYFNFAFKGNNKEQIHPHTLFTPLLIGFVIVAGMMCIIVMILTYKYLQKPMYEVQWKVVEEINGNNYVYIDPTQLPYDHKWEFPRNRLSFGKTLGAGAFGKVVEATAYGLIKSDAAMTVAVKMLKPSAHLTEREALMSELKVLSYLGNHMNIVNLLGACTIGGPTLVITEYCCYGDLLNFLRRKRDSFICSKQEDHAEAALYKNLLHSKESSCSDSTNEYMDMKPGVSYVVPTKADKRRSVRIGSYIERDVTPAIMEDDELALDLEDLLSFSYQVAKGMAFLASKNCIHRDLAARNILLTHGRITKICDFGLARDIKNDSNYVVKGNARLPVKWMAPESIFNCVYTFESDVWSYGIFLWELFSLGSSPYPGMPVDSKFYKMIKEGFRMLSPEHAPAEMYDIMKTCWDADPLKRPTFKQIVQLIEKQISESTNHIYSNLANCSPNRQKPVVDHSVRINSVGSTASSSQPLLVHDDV

Usually IC50 stands for the point on the concentration scale where inhibition reaches its midpoint. Consider `COc1ncc(F)cc1CNc1ccc(Cc2c[nH]c3ncc(C)cc23)c(F)n1` [Compound P-2049, (5-Fluoro-2-methoxy-pyridin-3-ylmethyl)-[6-fluoro-5-(5-methyl-1H-pyrrolo[2,3-b]pyridin-3-ylmethyl)-pyridin-2-yl]-amine], for which the “turbidity threshold (L, M, H) 1.4” value in [1] is given as “M (moderate solubility if the threshold concentration is 31.3 μM to 250 μM)”. Besides, the “turbidity threshold (L, M, H) 4.5” value in data set [1] is recorded as “L (low solubility if the threshold concentration is <31.3 μM)”. The “turbidity threshold (L, M, H) 6.8” value in data set [1] was “L (low solubility if the threshold concentration is <31.3 μM)”. Besides, the “turbidity threshold (L, M, H) 7.4” value in [1] was “L (low solubility if the threshold concentration is <31.3 μM)”. For the same compound, the IC50 was over 10 µM against CYP1A2; 5 to 10 µM at CYP2C9; 5 to 10 µM on CYP3A4(BFC); over 10 µM on CYP2D6; over 10 µM at CYP3A4(BQ); 5 to 10 µM against CYP2C19.

As to `Cc1cnc2[nH]cc(Cc3ccc(NCc4ccnc(C)c4)nc3F)c2c1` [Compound P-2067, [6-Fluoro-5-(5-methyl-1H-pyrrolo[2,3-b]pyridin-3-ylmethyl)-pyridin-2-yl]-(2-methyl-pyridin-4-ylmethyl)-amine], the “turbidity threshold (L, M, H) 1.4” value in data set [1] is “H (high solubility if the threshold concentration is >250 μM)”. Besides, the “turbidity threshold (L, M, H) 4.5” value in [1] is listed as “H (high solubility if the threshold concentration is >250 μM)”. For the same compound, the “turbidity threshold (L, M, H) 6.8” value in data set [1] was “H (high solubility if the threshold concentration is >250 μM)”. Also, the “turbidity threshold (L, M, H) 7.4” value in [1] is recorded as “H (high solubility if the threshold concentration is >250 μM)”. In addition, the IC50 on c-Kit kinase was over 0.1 µM; on Fms kinase (read-out: Biochemical activity (IC50 μM) Fms), under 0.1 µM; against CYP1A2, over 10 µM; on CYP2C9 (read-out: Cyp IC50 (μM) 2C9), under 5 µM; at CYP3A4(BFC) (read-out: Cyp IC50 (μM) 3A4(BFC), BFC substrate), under 5 µM; at CYP3A4(BQ), over 10 µM. Moreover, the IC50 on CYP2C19 (read-out: Cyp IC50 (μM) 2C19) is under 5 µM. The “Biochemical activity selectivity (Kit IC50/Fms IC50)” value at Fms kinase (Kit IC50/Fms IC50, biochemical) is over 20.
